How the values were obtained:
[1] = biological target: GDP-bound KRAS protein (aa 1-169), containing both G12D and C118A amino acid substitutions (Homo sapiens, UniProt P01116, C118A/G12D); assay: KRAS G12D Coupled Nucleotide Exchange Assay; type: biochemical; details: 2 h compound pre-incubation
Experimental: Following compound pre-incubation, purified SOS protein (aa 564-1049) and GTP (Roche 10106399001) were added to the assay wells and incubated for an additional 30 min. […] The assay plates were then read on a PerkinElmer EnVision Multilabel Reader, using AlphaScreen® technology, and data were analyzed using a 4-parameter logistic model to calculate IC50 values.

[2] = biological target: His-tagged KRAS G12D protein (Homo sapiens, UniProt P01116, G12D); assay: KRAS G12D TR-FRET Assay; type: binding
Sequence of His-tagged KRAS G12D protein (P01116 1-188 isoform P01116-2 G12D): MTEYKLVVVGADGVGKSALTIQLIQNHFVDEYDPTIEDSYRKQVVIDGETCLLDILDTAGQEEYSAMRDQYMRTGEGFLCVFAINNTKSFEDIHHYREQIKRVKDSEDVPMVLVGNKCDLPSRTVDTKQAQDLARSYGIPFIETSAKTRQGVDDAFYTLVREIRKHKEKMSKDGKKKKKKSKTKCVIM

[3] = tested on: Phosphorylation of ERK1/2 in A-427 cells; assay: Phospho-ERK1/2 MSD Assay (A-427 cells); type: cell-based; details: Homo sapiens, A-427, 2 h, 2 h treatment, read-out: p-ERK (A427 cells) IC50
Method in brief: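 ERK1/2 phosphorylation measured by Meso Scale whole-cell lysate assay after A-427 cells were exposed to a titration of compound for 2 h at 37 °C.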

[4] = tested on: Phosphorylation of ERK1/2 in AsPC-1 cells; assay: Phospho-ERK1/2 MSD Assay (AsPC-1 cells); type: cell-based; details: Homo sapiens, ASPC1, 2 h, 2 hours treatment, read-out: p-ERK (AsPC-1 cells) IC50
Method in brief: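 Read-out: MSD electrochemiluminescent detection of phosphorylated ERK1/2 in whole-cell lysates, fitted to a 4-parameter logistic curve for IC50. Prior to lysis, AsPC-1 cells (25,000 per well) received a 2 h compound dose-response at 37 °C.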

Sequence of GDP-bound KRAS protein (aa 1-169), containing both G12D and C118A amino acid substitutions (P01116 1-169 isoform P01116-2 G12D/C118A): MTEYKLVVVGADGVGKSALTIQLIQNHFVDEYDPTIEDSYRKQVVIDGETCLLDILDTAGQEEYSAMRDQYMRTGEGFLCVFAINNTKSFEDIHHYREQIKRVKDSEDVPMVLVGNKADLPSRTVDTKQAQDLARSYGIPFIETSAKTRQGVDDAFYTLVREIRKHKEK

Fc1cc2c(N3C[C@H]4CC[C@@H](C3)N4)nc(OC[C@@]34CCCN3C[C@H](F)C4)nc2c(F)c1-c1cccc2ccc(F)c(F)c12 [Example 155, 4-((1R,5S)-3,8-diazabicyclo[3.2.1]octan-3-yl)-7-(7,8-difluoronaphthalen-1-yl)-6,8-difluoro-2-(((2R,7aS)-2-fluorotetrahydro-1H-pyrrolizin-7a(5H)-yl)methoxy) quinazoline]
Avg 2 h Coupled Exchange IC50 [1]: 3 nM
IC50 [2]: 5 nM
IC50 [3]: 639 nM
IC50 [4]: 667 nM

Oc1cc(-c2ccc3c(N4C[C@@H]5CC[C@H]4CN5)nc(OC[C@@]45CCCN4C[C@H](F)C5)nc3c2)c2c(F)c(F)ccc2c1 [Example 113, 4-(4-((1S,4S)-2,5-diazabicyclo[2.2.2]octan-2-yl)-2-(((2R,7aS)-2-fluorotetrahydro-1H-pyrrolizin-7a(5H)-yl)methoxy)quinazolin-7-yl)-5,6-difluoronaphthalen-2-ol]
Avg 2 h Coupled Exchange IC50 [1]: 2 nM
IC50 [2]: 3 nM
IC50 [3]: 102 nM
IC50 [4]: 453 nM

Cc1c(Cl)cc2[nH]ncc2c1-c1ccc2c(N3C[C@H]4CC[C@@H](C3)N4)nc(OC[C@@]34CCCN3C[C@H](F)C4)nc2c1 [Example 40, 4-((1R,5S)-3,8-diazabicyclo[3.2. 1]octan-3-yl)-7-(6-chloro-5-methyl-1H-indazol-4-yl)-2-(((2R,7aS)-2-fluorotetrahydro-1H-pyrrolizin-7a(5H)-yl)methoxy) quinazoline]
Avg 2 h Coupled Exchange IC50 [1]: 6 nM
IC50 [2]: 11 nM
IC50 [3]: 686 nM
IC50 [4]: 2390 nM

CCc1cccc2cc(O)cc(-c3ccc4c(N5C[C@H]6CC[C@@H](C5)N6)nc(OC[C@@]56CCCN5C[C@H](F)C6)nc4c3F)c12 [Example 169, 4-(4-((1R,5S)-3,8-diazabicyclo[3.2.1]octan-3-yl)-8-fluoro-2-(((2R,7aS)-2-fluorotetrahydro-1H-pyrrolizin-7a(5H)-yl)methoxy)quinazolin-7-yl)-5-ethylnaphthalen-2-ol]
Avg 2 h Coupled Exchange IC50 [1]: 5 nM
IC50 [2]: 5 nM
IC50 [3]: 9 nM
IC50 [4]: 72 nM

Cc1c(-c2cc(O)cc3ccc(F)c(F)c23)ccc2c(N3C[C@H]4CC[C@@H](C3)N4)nc(OC[C@@]34CCCN3C[C@H](F)C4)nc12 [Example 97, 4-(4-((1R,5S)-3,8-diazabicyclo[3.2. 1]octan-3-yl)-2-(((2R,7aS)-2-fluorotetrahydro-1H-pyrrolizin-7a(5H)-yl)methoxy)-8-methylquinazolin-7-yl)-5,6-difluoronaphthalen-2-ol]
Avg 2 h Coupled Exchange IC50 [1]: 6 nM
IC50 [2]: 6 nM
IC50 [3]: 69 nM
IC50 [4]: 178 nM

CCc1c(F)ccc2cc(O)cc(-c3ccc4c(N5[C@@H]6CNC[C@H]5COC6)nc(OC[C@@]56CCCN5C[C@H](F)C6)nc4c3F)c12 [Example 152, 4-(4-((1R,5S)-3-oxa-7,9-diazabicyclo[3.3.1]nonan-9-yl)-8-fluoro-2-(((2R,7aS)-2-fluorotetrahydro-1H-pyrrolizin-7a(5H)-yl)methoxy)quinazolin-7-yl)-5-ethyl-6-fluoronaphthalen-2-ol]
Avg 2 h Coupled Exchange IC50 [1]: 4 nM
IC50 [2]: 5 nM
IC50 [3]: 73 nM
IC50 [4]: 76 nM

C#Cc1cccc2cc(O)cc(-c3cc4nc(OC[C@@]56CCCN5C[C@H](F)C6)nc(N5C[C@H]6CC[C@@H](C5)N6)c4cc3F)c12 [Example 182, 4-(4-((1R,5S)-3,8-diazabicyclo[3.2.1]octan-3-yl)-6-fluoro-2-(((2R,7aS)-2-fluorotetrahydro-1H-pyrrolizin-7a(5H)-yl)methoxy)quinazolin-7-yl)-5-ethynylnaphthalen-2-ol]
Avg 2 h Coupled Exchange IC50 [1]: 2 nM
IC50 [2]: 1 nM
IC50 [3]: 4 nM
IC50 [4]: 33 nM
